Source: patent publication US20250295629A1, “COMPOSITIONS AND METHODS FOR TREATING CANCERS OF THE CENTRAL NERVOUS SYSTEM (CNS), INCLUDING GLIOBLASTOMA AND CHEMORESISTANT CNS TUMORS, AND RELATED COMPOSITIONS AND METHODS FOR INHIBITING AND ELIMINATING CNS CANCER STEM CELLS” (priority 2022, published 2025)

How the values were obtained:
[1] = tested on: Olig2, nestin and SOX2 in GLUC2 spheroids; assay: Stemness marker staining of spheroids; format: cell-based, mouse; conditions: 10 μM, 48 hours
Method: For immunocytochemical analysis, GLUC2, KRl 58 and GBM43 cells were plated on glass coverslips overnight. Cells were treated with medium or lucanthone for 48 hours. The medium was aspirated and cells were fixed with 4% PFA for 10 minutes. Plates were then washed 3× with 0.3% TX-100 in PBS and wells were blocked with 3% normal goat serum/0.3% TX-100 in PBS for 1 hour. Cells were stained with primary antibodies overnight (LC3, Ki67, Nestin, Olig2, SOX2, CD133, p62, Cathepsin D, yH2AX). The primary antibody was removed, and cells were again washed 3× with 0.3% TX-100 in PBS after which time cells were incubated with fluorescent secondary antibodies for an hour at room temperature. Cells were then washed 3× with PBS, counterstained with DAPI and imaged under confocal microscopy. GSC were induced to adhere to glass slides by precoating glass slides with Geltrex for an hour.
To gain mechanistic insight into how lucanthone reduces sternness, KR158 and GLUC2 GSC were cultivated to form spheroids for 10 days, then spheroids were treated with 10 μM lucanthone for 48 hours and assayed for alterations in levels of LC3 and p62. […] In addition to assessing for changes in autophagic flux, we assessed for changes in the levels of sternness markers after treatment. […] Using RT-qPCR lucanthone reduced Olig2 mRNA expression in GLUC2 spheroids by >60% (FIG. 51), with some detectable change also observed in Ki67 in these cultures.

[2] = tested on: GLUC2 GSC intracranial gliomas; assay: Murine glioma model, luciferase imaging and tumor volume; format: in vivo, mouse
Method: Gliomas were established in 3-4 month old male and female mice as described previously (3, 4, 33). GLUC2 GSC were dissociated with accutase and counted. Mice were anesthetized with 20 mg/kg avertin, a midline incision was made in the scalp, the skin retracted and a small burr hole was drilled in the skull at the following stereotactic coordinates from bregma: −lmm anteroposterior and +2 mediolateral. l×10^5 GLUC2 GSC resuspended in PBS were injected over a period of 2 minutes at a depth of 3 mm. At the end of the injection, the needle was kept in the injection site for a further 3 minutes. After needle removal, the incision was sutured and mice were placed on a heating pad until they fully recovered from anesthesia. […] All animal procedures were approved by the Stony Brook University Institutional Animal Care and Use Committee.
GSC engraftment was visualized using the IVIS spectrum in vivo imaging system 7 days after inoculation and again on days 14 and 21. Briefly, mice were anesthetized using continuous isofluorane exposure. Their scalps were shaved. Mice were injected i.p. with 150 mg/kg D-Luciferin, carefully placed in the IVIS spectrum machine and imaged every 3-4 minutes for 40 minutes. Relative signal was quantified by technician blinded to experiment, and luminescence ratios of day 21 to day 7 were calculated to approximate disease progression throughout the course of treatment.
Lucanthone was solubilized in 10% DMSO, 40% HPCD in PBS. After confirming the presence of gliomas on day 7, mice were randomly divided to control and treatment groups, and treated with either saline or 50 mg/kg lucanthone i.p. every day from day 7 to day 20. On day 21, tumors were visualized by bioluminescent imaging, as above.
Mice were anesthetized with 20 mg/kg avertin and transcardially perfused with 30 ml PBS followed by 30 ml 4% PFA in PBS. Brains were removed and post-fixed in 4% PFA in PBS overnight. They were dehydrated for 48 hours in 30% w/v sucrose in PBS. Brains were then embedded in optimal cutting temperature compound (OCT, Tissue-Tek) and 20 μm coronal sections throughout the entire tumor were taken on a Leica cryostat (Nusslock, Germany) and collected on Superfrost plus microscope slides. To determine tumor volume, serial sections were taken from each animal and subjected to hematoxylin and eosin stain. Tumor volume was calculated as tumor area×20 μm thickness, x number of slides (34).

**Q.** With `CCN(CC)CCNc1ccc(C)c2sc3ccccc3c(=O)c12` [lucanthone] as the molecule, how does the Olig2 intensity [1] read?
**A.** strong reduction

**Q.** And the SOX2 expression [1]?
**A.** did not change

**Q.** What about the nestin expression [1] of the same molecule?
**A.** did not change

**Q.** And the systemic toxicity ([2]; 50 mg/kg)?
**A.** lack of apparent systemic toxicity

**Q.** What about the “weight loss throughout the course of treatment” value ([2]; 50 mg/kg i.p. every day) of the same molecule?
**A.** did not experience significant weight loss

**Q.** What about the “mice with a two-fold increase in luminescence” value ([2]; day 14, 50 mg/kg i.p. every day from day 7) of the same molecule?
**A.** 1 of 8

**Q.** And the “increase in tumor luminescence compared to day 7” value ([2]; day 21, 50 mg/kg i.p. every day)?
**A.** 10 fold

**Q.** And the “tumors smaller than those of saline-treated animals” value ([2]; histological analysis, 50 mg/kg i.p. every day)?
**A.** approximately 60%
